Data reported in ChEMBL document CHEMBL5316347, “Design, Synthesis, and Biological Evaluation of Bipyridazine Derivatives as Stimulator of Interferon Genes (STING) Receptor Agonists” (J Med Chem, 2023).
The source made the active and inactive calls. The calls are words filed in the database; no cut-off is given here.

What was measured:
[1] = biological target: T1, Stimulator of interferon genes protein (Homo sapiens, UniProt Q86WV6); experiment: Agonist activity at human STING in human THP1-Blue ISG cells incubated for 24 hrs in presence of PMA by luciferase reporter assay; type: cell-based
[2] = system: Stimulator of interferon genes protein (Homo sapiens), Q86WV6 [UNDEFINED MUTATION]; conditions: dose 50.0 µM
[3] = biological target: T2, Stimulator of interferon genes protein (Mus musculus, UniProt Q3TBT3); experiment: Agonist activity at mouse 6His-tagged recombinant STING CTD (144 to 378 residues) expressed in Escherichia coli BL21 (DE3) incubated for 10 mins by FRET assay
T2 sequence (Q3TBT3 whole entry): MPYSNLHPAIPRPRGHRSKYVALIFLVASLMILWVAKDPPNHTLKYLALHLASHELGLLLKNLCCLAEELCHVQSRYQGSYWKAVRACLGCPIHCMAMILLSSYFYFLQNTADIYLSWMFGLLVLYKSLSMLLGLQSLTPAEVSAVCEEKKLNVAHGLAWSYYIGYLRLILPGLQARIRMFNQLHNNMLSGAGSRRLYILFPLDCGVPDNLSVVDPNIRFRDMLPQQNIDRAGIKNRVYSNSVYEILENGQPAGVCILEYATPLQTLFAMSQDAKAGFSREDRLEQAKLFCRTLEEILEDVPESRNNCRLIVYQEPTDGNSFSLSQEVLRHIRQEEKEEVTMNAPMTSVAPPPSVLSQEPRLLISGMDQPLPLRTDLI

[4] = biological target: T3, Stimulator of interferon genes protein (Mus musculus) (UniProt Q3TBT3); experiment: Binding affinity to mouse 6His-tagged recombinant STING CTD (144 to 378 residues) expressed in Escherichia coli BL21 (DE3) assessed as thermal stability at 50 uM by measuring change in melting temperature by SYPRO orange dye based analysis; conditions: filed as agonist
T3 sequence (whole entry): T2 sequence (Q3TBT3 whole entry)

[5] = biological target: T2, Stimulator of interferon genes protein; experiment: Agonist activity at mouse STING in STING knockout mouse RAW-Lucia ISG cells incubated for 24 hrs in presence of PMA by luciferase reporter assay; type: cell-based
[6] = Half life in C57BL/6 mouse at 10 mg/kg, iv qd measured upto 24 hrs by LC-MS/MS analysis; type: ADME, organism-based; conditions: in vivo
[7] = AUC(0 to t) in C57BL/6 mouse at 10 mg/kg, iv qd measured upto 24 hrs by LC-MS/MS analysis; type: ADME, organism-based; set-up: dose 10 mg/kg, time < 24 hrs, route iv; conditions: in vivo
[8] = AUC(0 to infinity) in C57BL/6 mouse at 10 mg/kg, iv qd measured upto 24 hrs by LC-MS/MS analysis; type: ADME, organism-based; set-up: time < 24 hrs, dose 10 mg/kg, route iv; conditions: in vivo
[9] = Clearance in C57BL/6 mouse at 10 mg/kg, iv qd measured upto 24 hrs by LC-MS/MS analysis; type: ADME, organism-based; conditions: in vivo
[10] = MRT(0 to infinity) in C57BL/6 mouse at 10 mg/kg, iv qd measured upto 24 hrs by LC-MS/MS analysis; type: ADME, organism-based; conditions: in vivo
[11] = Volume of distribution at steady state in C57BL/6 mouse at 10 mg/kg, iv qd measured upto 24 hrs by LC-MS/MS analysis; type: ADME, organism-based; conditions: in vivo, read-out: Vdss
B16-F10 [12] = experiment: Antitumor activity against mouse B16-F10 cells implanted in C57BL/6 mouse assessed tumor growth inhibition at 10 mg/kg, ip qd measured for 14 days; type: functional, organism-based; conditions: time 14.0 day
B16-F10 [13] = experiment: Antitumor activity against mouse B16-F10 cells implanted in C57BL/6 mouse assessed tumor growth inhibition at 30 mg/kg, ip qd measured for 14 days; type: functional, organism-based; conditions: time 14.0 day
[14] = biological target: T2, Stimulator of interferon genes protein; experiment: Agonist activity at mouse STING in mouse RAW-Lucia ISG cells incubated for 24 hrs in presence of PMA by luciferase reporter assay; type: cell-based
[15] = biological target: T1, Stimulator of interferon genes protein; experiment: Agonist activity at human STING in STING knockout human THP1-Blue ISG cells incubated for 24 hrs in presence of PMA by luciferase reporter assay; type: cell-based

Chain of Stimulator of interferon genes protein (Homo sapiens), Q86WV6 [UNDEFINED MUTATION] (Q86WV6 whole entry, looked up, stated change not applied, the tested form may be a part): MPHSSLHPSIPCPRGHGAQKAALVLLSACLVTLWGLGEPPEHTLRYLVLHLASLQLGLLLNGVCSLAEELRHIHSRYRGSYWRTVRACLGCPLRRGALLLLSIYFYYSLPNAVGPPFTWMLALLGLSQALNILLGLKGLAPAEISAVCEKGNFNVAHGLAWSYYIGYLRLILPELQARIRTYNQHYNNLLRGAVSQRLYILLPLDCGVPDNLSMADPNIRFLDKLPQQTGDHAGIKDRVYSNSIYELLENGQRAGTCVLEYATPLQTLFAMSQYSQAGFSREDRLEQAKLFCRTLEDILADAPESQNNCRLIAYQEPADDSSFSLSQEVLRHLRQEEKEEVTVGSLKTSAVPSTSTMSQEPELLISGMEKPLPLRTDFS
T1 sequence (Q86WV6 whole entry): as the sequence (Q86WV6 whole entry, looked up, stated change not applied, the tested form may be a part) above

O=C(Nc1cc(F)c(F)cc1C(=O)O)c1ccc(N2CCOCC2)nn1
EC50 [1]: > 100 µM | ΔTm [2]: 0 °C

O=C(Nc1cc(F)c(F)cc1C(=O)O)c1ccc(-c2cccnc2)nn1
EC50 [1]: 32.7 µM | ΔTm [2]: 0 °C

O=C(Nc1cc(F)c(F)cc1C(=O)O)c1ccc(-n2ccnc2)nn1
IC50 [3]: 1.6 µM | ΔTm [4]: 9 °C | EC50 [5]: > 200 µM | half-life [6]: 1.82 h | AUC(0-t) at 24 h [7]: 1360 ng·h/mL | AUC(0-inf) [8]: 1370 ng·h/mL | clearance [9]: 123 mL/min/kg | MRT inf [10]: 0.495 h | Vd [11]: 3.62 L/kg | inhibition (B16-F10 [12]): inactive | inhibition (B16-F10 [13]): Active

O=C(Nc1cc(C(F)(F)F)ccc1C(=O)O)c1ccc(-c2ccnnc2)nn1
EC50 [1]: > 100 µM | ΔTm [2]: 0 °C

N#Cc1ccn(-c2ccc(C(=O)Nc3cc(F)c(F)cc3C(=O)O)nn2)c1
EC50 [1]: 10.5 µM | ΔTm ([2]; filed as agonist): 3.5 °C

COc1ccc(NC(=O)c2ccc(-c3ccnnc3)nn2)c(C(=O)O)c1
EC50 [1]: > 100 µM | ΔTm [2]: 0 °C

CC(=O)c1ccn(-c2ccc(C(=O)Nc3cc(F)c(F)cc3C(=O)O)nn2)c1
EC50 [1]: 29.9 µM | ΔTm [2]: 0 °C

Cc1cncn1-c1ccc(C(=O)Nc2cc(F)c(F)cc2C(=O)O)nn1
EC50 [1]: 22.8 µM | ΔTm [2]: 0 °C

COc1cc2cc(C(=O)CCC(=O)O)sc2cc1OC
EC50 [1]: 3.51 µM | EC50 [14]: 34.5 µM | EC50 [15]: > 100 µM | EC50 [5]: > 200 µM

O=C(Nc1cc(F)c(F)cc1C(=O)O)c1ccc(-n2cccc2)nn1
EC50 [1]: 33.6 µM | ΔTm ([2]; filed as agonist): 0.5 °C

O=C(Nc1ccc(C(F)(F)F)cc1C(=O)O)c1ccc(-c2ccnnc2)nn1
EC50 [1]: 1940 µM | ΔTm ([2]; filed as agonist): 3.5 °C

O=C(Nc1cc(F)c(F)cc1C(=O)O)c1ccc(-c2ccnnc2)nn1
EC50 [1]: 17.9 µM | ΔTm ([2]; filed as agonist): 6 °C

O=C(Nc1cc(F)c(F)cc1C(=O)O)c1ccc(-c2ccoc2)nn1
EC50 [1]: 38 µM | ΔTm [2]: 0 °C

O=C(Nc1ccccc1C(=O)O)c1ccc(-c2ccnnc2)nn1
EC50 [1]: > 100 µM | ΔTm ([2]; filed as agonist): 0.5 °C
